Data reported in US20250032526A1, “COMPOSITION, METHOD FOR PREPARING SAME, AND USE THEREOF” (priority 2022, published 2025).

Tests used:
[1] = Stability investigation of related substance (capsules); assay type: physicochemical; conditions: 0 day
Excerpt: The capsules provided by the present invention were taken and separately put under the conditions shown in Table 18 to investigate the stability.

[2] = Compatibility of raw material and auxiliary material (content measurement); assay type: physicochemical
Experimental: The mixture was allowed to stand at 60° C. high temperature condition (60° C.), high humidity condition (25° C., 92.5% RH), acceleration condition (40° C.±2° C., 75% RH±5%), and light condition (4500 1×±500 1×) for 10 days and 30 days, and then taken out to detect the content and the change of the related substance.

SMILES: N#C[C@@]1(c2ccc3c(N)ncnn23)O[C@H](COC(=O)C2CCCCC2)[C@@H](O)[C@H]1O [ATV014]
- Impurity (%) RRT 0.42 [1]: 0.47%
- Impurity (%) RRT 0.49 (0.48) [1]: 0.19%
- Impurity (%) RRT 1.16 [1]: 0.75%
- Impurity (%) RRT 1.42 (1.38) [1]: 0.53%
- Impurity (%) RRT 1.44 (1.40) [1]: 0.16%
- Impurity (%) RRT 1.70 (1.65) [1]: 0.04%
- Impurity (%) Total [1]: 2.10%
- Content measurement result, 25° C./92.5% RH, open, 10 day ([2]; 25° C./92.5% RH, 10 day): 100.3%
- Content measurement result, 60° C., open, 10 day ([2]; 60° C., 10 day): 100.3%
- Content measurement result, 60° C., open, 30 day ([2]; 60° C., 30 day): 100.5%
